Results published in patent US9309242B2, “Substituted pyrido[2,3-b]pyrazines as FGFR kinase inhibitors” (priority 2011, dated 2016).
Where two headings read alike, the source gives them in different places.

Key:
[1] = target: Ba/F3-FGFR4-transfected cells (Homo sapiens, UniProt P22455); assay: Ba/F3-FGFR4 cellular proliferation assay, Alamar Blue; type: cell-based
Method in brief: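 Fluorescence read-out (ex. 540 nm, em. 590 nm) of resazurin-based Alamar Blue after 4 h, following 24 h compound exposure of Ba/F3-FGFR4-transfected cells (20000/well) at 37° C, 5% CO2.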

FGFR1 (h) = FGFR1 (h) (Homo sapiens, UniProt P11362); assay: FGFR1 (enzymatic assay), TR-FRET; type: biochemical; conditions: read-out: FGFR 1 pIC50 (converted)
FGFR1 (h), sequence (P11362 22-822): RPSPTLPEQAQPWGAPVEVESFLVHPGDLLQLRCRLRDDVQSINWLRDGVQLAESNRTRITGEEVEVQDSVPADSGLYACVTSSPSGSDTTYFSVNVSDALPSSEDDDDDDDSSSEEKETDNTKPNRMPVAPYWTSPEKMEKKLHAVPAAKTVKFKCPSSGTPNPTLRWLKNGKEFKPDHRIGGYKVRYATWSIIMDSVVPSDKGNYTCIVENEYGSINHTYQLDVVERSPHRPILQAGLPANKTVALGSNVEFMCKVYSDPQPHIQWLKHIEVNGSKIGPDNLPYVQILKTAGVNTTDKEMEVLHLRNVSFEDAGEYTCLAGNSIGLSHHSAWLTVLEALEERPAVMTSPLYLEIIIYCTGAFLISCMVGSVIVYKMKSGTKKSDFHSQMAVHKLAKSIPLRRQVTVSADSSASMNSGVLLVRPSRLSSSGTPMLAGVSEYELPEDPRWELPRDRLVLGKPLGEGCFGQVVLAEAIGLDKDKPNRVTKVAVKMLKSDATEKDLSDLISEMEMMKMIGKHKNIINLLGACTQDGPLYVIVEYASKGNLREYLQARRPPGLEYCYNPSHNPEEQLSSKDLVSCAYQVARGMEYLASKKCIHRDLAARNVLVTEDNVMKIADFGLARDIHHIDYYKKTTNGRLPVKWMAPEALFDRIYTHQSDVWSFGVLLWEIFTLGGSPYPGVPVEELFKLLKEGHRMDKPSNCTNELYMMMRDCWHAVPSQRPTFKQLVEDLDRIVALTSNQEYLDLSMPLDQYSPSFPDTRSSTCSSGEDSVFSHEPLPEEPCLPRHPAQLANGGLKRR

[2] = system: Ba/F3-KDR-transfected cells; assay: Ba/F3-KDR (plus IL3) cellular proliferation assay, counterscreen with 10 ng/ml murine IL3; type: cell-based; conditions: plus IL3 (10 ng/ml murine IL3, counterscreen); read-out: BAF3-KDR (PLUS IL3) pIC50 (converted)
Method in brief: (§1)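 Read-out: resazurin-based Alamar Blue fluorescence (ex. 540, em. 590 nm) after 4 h. Before that, cells were incubated with compound for 24 h at 37° C. The counterscreen ran identically but with IL3 supplemented.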

[3] = system: Ba/F3-FGFR3-transfected cells; assay: Ba/F3-FGFR3 (plus IL3) cellular proliferation assay, counterscreen with 10 ng/ml murine IL3; type: cell-based; conditions: plus IL3 (10 ng/ml murine IL3, counterscreen); read-out: BAF3-FGFR3 (PLUS IL3) pIC50 (converted)
Method in brief: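 With or without 10 ng/ml murine IL3, FGFR3-dependent Ba/F3 cells were treated 24 h with compound, then viability was gauged by Alamar Blue fluorescence after 4 h (ex 540/em 590 nm).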

KDR (h) = KDR (h) (Homo sapiens, UniProt P35968); assay: KDR (VEGFR2) (enzymatic assay), TR-FRET; type: biochemical; conditions: read-out: VEGFR 2 (KDR) pIC50 (converted)
KDR (h), sequence (P35968 20-1356): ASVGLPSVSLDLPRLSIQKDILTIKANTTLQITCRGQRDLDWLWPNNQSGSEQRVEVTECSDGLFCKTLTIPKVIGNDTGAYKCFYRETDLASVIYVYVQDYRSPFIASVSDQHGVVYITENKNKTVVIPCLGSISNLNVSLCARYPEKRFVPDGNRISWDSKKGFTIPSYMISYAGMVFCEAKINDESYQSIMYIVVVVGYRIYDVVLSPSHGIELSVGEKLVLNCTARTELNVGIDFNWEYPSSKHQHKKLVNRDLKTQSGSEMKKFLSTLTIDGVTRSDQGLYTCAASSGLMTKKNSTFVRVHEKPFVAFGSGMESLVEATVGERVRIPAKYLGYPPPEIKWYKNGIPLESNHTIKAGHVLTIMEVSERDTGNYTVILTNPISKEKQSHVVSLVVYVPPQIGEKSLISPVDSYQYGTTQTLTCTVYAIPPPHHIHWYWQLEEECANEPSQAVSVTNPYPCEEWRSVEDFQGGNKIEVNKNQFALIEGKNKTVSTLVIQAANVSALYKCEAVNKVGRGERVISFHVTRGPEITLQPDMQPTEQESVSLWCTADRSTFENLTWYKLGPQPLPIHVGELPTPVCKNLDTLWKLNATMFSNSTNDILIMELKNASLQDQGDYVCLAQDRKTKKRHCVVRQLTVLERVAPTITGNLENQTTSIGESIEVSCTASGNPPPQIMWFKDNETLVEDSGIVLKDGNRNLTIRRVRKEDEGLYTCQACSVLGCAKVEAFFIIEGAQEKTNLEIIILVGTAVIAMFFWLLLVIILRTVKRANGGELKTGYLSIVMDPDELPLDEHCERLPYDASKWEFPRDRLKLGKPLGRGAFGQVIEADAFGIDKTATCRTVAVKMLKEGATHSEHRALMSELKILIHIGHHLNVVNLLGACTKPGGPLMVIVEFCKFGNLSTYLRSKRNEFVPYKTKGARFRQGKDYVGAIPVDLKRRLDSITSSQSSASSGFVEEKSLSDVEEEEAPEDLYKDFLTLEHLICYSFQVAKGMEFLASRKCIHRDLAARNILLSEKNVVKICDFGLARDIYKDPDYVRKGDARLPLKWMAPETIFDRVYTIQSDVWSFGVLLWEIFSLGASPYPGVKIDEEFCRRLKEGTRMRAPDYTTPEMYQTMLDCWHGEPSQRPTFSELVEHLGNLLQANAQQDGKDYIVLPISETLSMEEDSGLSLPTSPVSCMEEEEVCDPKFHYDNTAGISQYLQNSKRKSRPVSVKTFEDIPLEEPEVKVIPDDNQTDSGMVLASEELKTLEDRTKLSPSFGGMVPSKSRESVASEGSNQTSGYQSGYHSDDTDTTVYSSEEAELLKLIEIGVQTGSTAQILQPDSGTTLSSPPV
Method in brief: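 3 μM ATP, 500 nM Btn-Flt3 substrate, 150 ng/ml kinase; HEPES pH 7.5 with MnCl2, DTT, vanadate, Triton; 1% DMSO. 120 min RT. Stop: EDTA + Eu-anti-P-Tyr + SA-XL-665, 60 min RT. Readout TR-FRET ex340/em620, 655 nm, RFU.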

FGFR2 (h) = FGFR2 (h) (Homo sapiens, UniProt P21802); assay: FGFR2 (enzymatic assay), TR-FRET; type: biochemical; conditions: enzymatic assay, read-out: FGFR 2 pIC50 (converted)
FGFR2 (h), sequence (P21802 22-821): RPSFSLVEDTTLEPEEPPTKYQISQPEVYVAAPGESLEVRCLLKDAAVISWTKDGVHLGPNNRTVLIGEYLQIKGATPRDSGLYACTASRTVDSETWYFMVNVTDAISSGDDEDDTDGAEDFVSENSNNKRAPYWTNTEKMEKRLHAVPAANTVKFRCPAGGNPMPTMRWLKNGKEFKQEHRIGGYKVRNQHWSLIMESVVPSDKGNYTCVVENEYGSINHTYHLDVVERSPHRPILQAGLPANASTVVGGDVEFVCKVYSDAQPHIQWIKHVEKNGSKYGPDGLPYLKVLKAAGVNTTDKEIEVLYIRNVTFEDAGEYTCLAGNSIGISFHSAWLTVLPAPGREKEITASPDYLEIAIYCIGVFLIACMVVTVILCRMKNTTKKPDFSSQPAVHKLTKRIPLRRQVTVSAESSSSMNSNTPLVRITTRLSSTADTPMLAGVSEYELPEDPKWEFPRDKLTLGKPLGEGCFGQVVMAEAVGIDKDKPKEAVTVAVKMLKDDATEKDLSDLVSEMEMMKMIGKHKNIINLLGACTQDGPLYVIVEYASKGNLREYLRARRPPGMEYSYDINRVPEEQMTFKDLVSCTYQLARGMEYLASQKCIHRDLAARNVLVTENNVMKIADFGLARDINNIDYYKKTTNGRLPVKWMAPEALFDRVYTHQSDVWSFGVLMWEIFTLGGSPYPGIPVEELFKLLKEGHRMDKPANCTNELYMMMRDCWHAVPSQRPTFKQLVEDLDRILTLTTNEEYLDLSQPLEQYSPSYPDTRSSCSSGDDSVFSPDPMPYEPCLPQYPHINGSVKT
Method in brief: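 hFGFR2 150 ng/ml; Btn-Flt3 500 nM; ATP 0.4 μM; 50 mM HEPES pH 7.5, 6 mM MnCl2, 1 mM DTT, 0.1 mM Na3VO4, 0.01% Triton-X-100; 1% DMSO final.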

[4] = target: T1, Ba/F3-KDR-transfected cells (Homo sapiens, UniProt P35968); assay: Ba/F3-KDR (minus IL3) cellular proliferation assay, Alamar Blue; type: cell-based
T1 construct: BAF3-KDR (MIN IL3) pIC50; other: minus IL3
T1 sequence (P35968 whole entry, change not shown): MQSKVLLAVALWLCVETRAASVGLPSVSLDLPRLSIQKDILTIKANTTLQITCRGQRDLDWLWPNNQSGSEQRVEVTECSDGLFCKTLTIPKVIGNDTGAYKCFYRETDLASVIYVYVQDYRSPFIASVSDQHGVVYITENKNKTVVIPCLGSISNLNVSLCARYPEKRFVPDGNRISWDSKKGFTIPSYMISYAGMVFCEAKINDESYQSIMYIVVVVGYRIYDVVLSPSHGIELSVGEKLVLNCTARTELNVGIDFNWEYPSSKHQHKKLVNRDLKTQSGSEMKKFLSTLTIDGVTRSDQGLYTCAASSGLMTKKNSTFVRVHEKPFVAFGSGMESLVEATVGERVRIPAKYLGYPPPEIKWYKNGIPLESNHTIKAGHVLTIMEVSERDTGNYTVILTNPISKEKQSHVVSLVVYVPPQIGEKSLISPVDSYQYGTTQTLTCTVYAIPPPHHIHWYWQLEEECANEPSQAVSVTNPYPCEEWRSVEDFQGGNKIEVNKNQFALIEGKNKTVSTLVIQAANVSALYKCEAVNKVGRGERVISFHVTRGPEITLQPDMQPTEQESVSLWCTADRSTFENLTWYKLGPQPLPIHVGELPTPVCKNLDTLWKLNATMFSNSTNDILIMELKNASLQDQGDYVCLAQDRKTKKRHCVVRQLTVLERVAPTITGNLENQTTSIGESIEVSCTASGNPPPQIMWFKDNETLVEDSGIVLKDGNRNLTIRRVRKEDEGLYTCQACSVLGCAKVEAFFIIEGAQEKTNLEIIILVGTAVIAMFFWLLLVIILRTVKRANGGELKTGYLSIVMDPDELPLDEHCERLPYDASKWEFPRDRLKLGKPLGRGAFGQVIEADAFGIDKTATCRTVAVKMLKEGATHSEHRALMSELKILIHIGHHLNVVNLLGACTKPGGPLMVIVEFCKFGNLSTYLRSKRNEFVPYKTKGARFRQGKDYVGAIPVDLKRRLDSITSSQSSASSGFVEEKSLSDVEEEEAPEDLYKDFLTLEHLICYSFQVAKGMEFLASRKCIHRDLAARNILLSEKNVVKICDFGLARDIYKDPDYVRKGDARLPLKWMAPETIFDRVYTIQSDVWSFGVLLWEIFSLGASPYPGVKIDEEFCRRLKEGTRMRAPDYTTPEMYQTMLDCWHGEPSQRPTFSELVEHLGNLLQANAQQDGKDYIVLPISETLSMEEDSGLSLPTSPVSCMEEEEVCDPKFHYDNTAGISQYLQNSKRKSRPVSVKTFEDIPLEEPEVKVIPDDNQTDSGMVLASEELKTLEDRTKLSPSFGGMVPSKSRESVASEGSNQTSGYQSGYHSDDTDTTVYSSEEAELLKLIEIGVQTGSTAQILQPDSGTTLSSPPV
Method in brief: as §1

[5] = average values if tested multiple times

Ba/F3-FGFR4-transfected cells, sequence (P22455 whole entry, change not shown): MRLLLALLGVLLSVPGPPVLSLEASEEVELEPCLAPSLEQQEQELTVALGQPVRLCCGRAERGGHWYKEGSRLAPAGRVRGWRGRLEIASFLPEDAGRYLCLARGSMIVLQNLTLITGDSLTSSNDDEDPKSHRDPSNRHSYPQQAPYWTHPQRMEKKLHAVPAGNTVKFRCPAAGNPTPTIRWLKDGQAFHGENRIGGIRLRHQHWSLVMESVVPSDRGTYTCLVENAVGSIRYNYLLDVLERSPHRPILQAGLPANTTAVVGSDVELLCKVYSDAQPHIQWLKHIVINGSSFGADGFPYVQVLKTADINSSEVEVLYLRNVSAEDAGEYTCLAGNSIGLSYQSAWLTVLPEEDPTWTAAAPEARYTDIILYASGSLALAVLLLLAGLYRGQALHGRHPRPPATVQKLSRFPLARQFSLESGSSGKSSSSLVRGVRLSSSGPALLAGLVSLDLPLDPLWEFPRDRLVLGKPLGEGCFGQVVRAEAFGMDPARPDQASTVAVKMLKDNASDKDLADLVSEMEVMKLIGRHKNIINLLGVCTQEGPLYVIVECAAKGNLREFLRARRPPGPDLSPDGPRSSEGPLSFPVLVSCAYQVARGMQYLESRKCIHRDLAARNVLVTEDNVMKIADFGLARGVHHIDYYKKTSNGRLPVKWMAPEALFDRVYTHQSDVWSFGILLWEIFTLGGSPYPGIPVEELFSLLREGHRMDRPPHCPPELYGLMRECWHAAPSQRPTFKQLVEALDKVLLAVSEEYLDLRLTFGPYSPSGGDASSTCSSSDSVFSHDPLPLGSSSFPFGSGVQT

| SMILES | BAF3-FGFR4 pIC50 [1] | IC50 (FGFR1 (h)) [nM] | IC50 [2] [nM] | IC50 [3] [nM] | IC50 (KDR (h)) [nM] | IC50 (FGFR2 (h)) [nM] | BAF3-KDR (MIN IL3) pIC50 [4] | IC50 (FGFR1 (h); [5]) [nM] | IC50 (KDR (h); [5]) [nM] | IC50 (FGFR2 (h); [5]) [nM] |
| --- | --- | --- | --- | --- | --- | --- | --- | --- | --- | --- |
| COc1cc(OC)c(F)c(N(Cc2c[nH]c(C)n2)c2ccc3ncc(-c4cnn(C)c4)nc3n2)c1 [Compound 137] | 7.23 | 1.48 | > 10000 | > 10000 | 11.2 | 2.04 | 6.19 | – | – | – |
| COc1cc(OC)c(F)c(N(CC2CCCCO2)c2ccc3ncc(-c4cnn(C)c4)nc3n2)c1 (centres unmarked) [Compound 139] | 6.61 | 3.16 | > 10000 | > 10000 | 28.8 | 3.31 | 5.33 | – | – | – |
| COc1cc(OC)c(F)c(N(Cc2nn[nH]n2)c2ccc3ncc(-c4cnn(C)c4)nc3n2)c1 [Compound 140] | <5 | 11.7 | > 10000 | > 10000 | 56.2 | 4.47 | <5 | – | – | – |
| COc1cc(OC)c(F)c(N(CC2CCC(=O)N2)c2ccc3ncc(-c4cnn(C)c4)nc3n2)c1F (centres unmarked) [Compound 192] | 7.01 | – | > 10000 | > 10000 | – | – | 6.11 | 1.15 | 13.8 | 2.51 |
| COc1cc(OC)c(F)c(/N=c2\ccc3ncc(-c4cnn(C)c4)nc3n2CC2CCC(=O)N2)c1F (centres unmarked) [Compound 193] | 7.00 | – | > 10000 | > 10000 | – | – | 6.28 | 0.55 | 7.24 | 0.794 |
